As a reminder, the solubility is the concentration that dissolves in the medium under given conditions. By EC50 is commonly meant the concentration giving half of the maximal effect. The term IC50 denotes the point on the concentration scale where inhibition reaches its midpoint.

Values after ≈ are worked out from the molar mass of the structure shown. *1 amine or outer side, *2 acyl side, *3 side chain or, on linkers, in order; H or OH if unused. Where a SMILES comes first, the peptide text is derived from it. Bridges are numbered along the chain shown (N, C = ends). [ ]: non-standard residue; d: D form. The star is where a group is joined. C20 diacid = O=C(O)CCCCCCCCCCCCCCCCCCC(=O)*; γGlu = O=C(O)[C@H](CCC(=O)[*:2])N[*:1]; AEEA = NCCOCCOCC(=O)O

The nature of data set [1]: Solubility of the compound in lactate at pH 3 by UPLC analysis. The format is physicochemical. The note with it: lactate buffer.
The nature of data set [2]: Solubility of the compound in lactate at pH 4 by UPLC analysis. The following applies: lactate buffer. The format is physicochemical.
Data set [3] is described as follows: Agonist activity at human calcitonin receptor expressed in BHK570 cells assessed as increase in intracellular cAMP concentration incubated for 3 hrs in absence of albumin by CRE luciferase reporter gene assay. The following applies: BHK570, 3 h. The format is cell-based. On the technique in general: A reporter such as luciferase makes a cellular process visible.

The nature of data set [4]: Displacement of [125I]-calcitonin from rat calcitonin receptor expressed in tk-ts 13 cells measured after 120 mins by scintillation proximity assay. The format is cell-based. The following applies: tk-ts13.
Data set [5] can be described thus: Solubility of the compound in bis-tris propane at pH 6 by UPLC analysis. The format is physicochemical. The following applies: bis-tris propane buffer.
A short description of data set [6]: Displacement of [125I]-amylin from human AMY3R (CTR+RAMP3) expressed in BHK-13 cells measured after 120 mins by scintillation proximity assay. The format is cell-based.
Data set [7] in a line: Displacement of [125I]-calcitonin from human calcitonin receptor expressed in tk-ts 13 cells measured after 120 mins by scintillation proximity assay. The following applies: tk-ts13. The format is cell-based. (In a radioligand displacement assay an active substance lowers the binding of a labelled ligand.)
A short description of data set [8]: Agonist activity at human AMY3R (CT+RAMP3) expressed in Hollex1 cells incubated for 3 hrs by luminescence assay. The format is cell-based. The note with it: Hollex1, 3 h.
The species entered for data set [9] is Rattus norvegicus. As to the kind of experiment: Ratio of IC50 for displacement of [125I]-calcitonin from rat calcitonin receptor expressed in tk-ts 13 cells to IC50 for displacement of [125I]-amylin from rat AMY3R (CTR+RAMP3) expressed in BHK-13 cells. The format is cell-based.
The nature of data set [10]: Solubility of the compound in bis-tris propane at pH 6.5 by UPLC analysis. The note with it: bis-tris propane buffer. The format is physicochemical.
For data set [11], the species on record is Homo sapiens. As to the kind of experiment: Ratio of IC50 for displacement of [125I]-calcitonin from human calcitonin receptor expressed in tk-ts 13 cells to IC50 for displacement of [125I]-amylin from human AMY3R (CTR+RAMP3) expressed in BHK-13 cells. The format is cell-based.
Data set [12] in a line: Solubility of the compound in lactate at pH 5 by UPLC analysis. The format is physicochemical. The note with it: lactate buffer.
Data set [13] in a line: Solubility of the compound in bis-tris propane at pH 7.5 by UPLC analysis. The format is physicochemical. The following applies: bis-tris propane buffer.
Data set [14] deals with Rattus norvegicus. As to the kind of experiment: Reduction in food intake in Sprague-Dawley rat at 3 nmol/kg, sc administered as single dose measured after 24 to 48 hrs relative to control. The format is functional. Also on record: scale not given: the % may be the effect or the level left. The note with it: time 24-48 hrs.
Data set [15] is described as follows: Solubility of the compound in bis-tris propane at pH 7 by UPLC analysis. The format is physicochemical. The note with it: bis-tris propane buffer.
The target in data set [16] is Insulin (Homo sapiens) (UniProt P01308). The experiment in a line: Effect on insulin (unknown origin) amyloid fibril formation assessed as lag time in glycyl-glycine buffer at pH 4 measured after 45 hrs by thioflavin-T fluorescence assay.
Sequence of Insulin (Homo sapiens) (P01308 whole entry): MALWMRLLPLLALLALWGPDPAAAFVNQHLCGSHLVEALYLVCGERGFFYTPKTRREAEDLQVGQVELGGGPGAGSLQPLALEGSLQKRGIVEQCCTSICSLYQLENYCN
A short description of data set [17]: Displacement of [125I]-amylin from rat AMY3R (CTR+RAMP3) expressed in BHK-13 cells measured after 120 mins by scintillation proximity assay. The format is cell-based.
Data set [18] addresses Insulin (Homo sapiens) (UniProt P01308). As to the kind of experiment: Effect on insulin (unknown origin) amyloid fibril formation assessed as peptide recovery in glycyl-glycine buffer at pH 4 measured after 45 hrs by thioflavin-T fluorescence assay relative to control. Further details: concentration or dose not given beside the values.
A short description of data set [19]: Solubility of the compound in bis-tris propane at pH 8 by UPLC analysis. The format is physicochemical. The note with it: bis-tris propane buffer.
The species entered for data set [20] is Homo sapiens. The experiment in a line: Ratio of EC50 for human calcitonin receptor expressed in BHK570 cells to EC50 for human AMY3R (CT+RAMP3) expressed in Hollex1 cells. The format is cell-based.
Data set [21] has as its system Rattus norvegicus. The experiment in a line: Reduction in food intake in Sprague-Dawley rat at 3 nmol/kg, sc administered as single dose measured upto 24 hrs relative to control. The format is functional. Further details: scale not given: the % may be the effect or the level left. The note with it: time hrs <=24.
The nature of data set [22]: Agonist activity at rat calcitonin receptor expressed in BHK-13 cells assessed as increase in intracellular cAMP concentration incubated for 25 mins by CRE luciferase reporter gene assay. The note with it: BHK-13, 25 min. The format is cell-based.
For data set [23], the species on record is Rattus norvegicus. The experiment in a line: Ratio of EC50 for rat calcitonin receptor expressed in BHK-13 cells to EC50 for rat AMY3R (CT+RAMP3) expressed in tk-ts13 cells. The format is cell-based.
Data set [24] in a line: Agonist activity at rat AMY3R (CT+RAMP3) expressed in tk-ts13 cells assessed as increase in intracellular cAMP level incuabted for 25 mins by CRE luciferase reporter gene assay. The format is cell-based. The note with it: tk-ts13, 25 min. A general note: Changes in cAMP serve as a functional read-out for many G protein-coupled receptors.

In the case of `CC[C@H](C)[C@H](NC(=O)[C@@H]1CCCN1C(=O)CNC(=O)[C@H](Cc1ccccc1)NC(=O)[C@H](CC(N)=O)NC(=O)[C@H](CC(N)=O)NC(=O)[C@H](CO)NC(=O)[C@H](CO)NC(=O)[C@H](Cc1cnc[nH]1)NC(=O)[C@H](Cc1cnc[nH]1)NC(=O)[C@H](CC(C)C)NC(=O)[C@H](Cc1ccccc1)NC(=O)[C@H](CCC(=O)O)NC(=O)[C@H](C)NC(=O)[C@H](CC(C)C)NC(=O)[C@H](CCCNC(=N)N)NC(=O)[C@H](CCC(N)=O)NC(=O)[C@@H](NC(=O)[C@H](C)NC(=O)[C@@H]1CSSC[C@H](NC(=O)CC[C@H](NC(=O)CCCCCCCCCCCCCCCCCCC(=O)O)C(=O)O)C(=O)N[C@@H](CC(N)=O)C(=O)N[C@@H]([C@@H](C)O)C(=O)N[C@@H](C)C(=O)N[C@@H]([C@@H](C)O)C(=O)N1)[C@@H](C)O)C(=O)N[C@@H](CC(C)C)C(=O)N1CCC[C@H]1C(=O)N1CCC[C@H]1C(=O)N[C@H](C(=O)N[C@@H](CC(N)=O)C(=O)N[C@H](C(=O)NCC(=O)N[C@@H](CO)C(=O)N[C@@H](CC(N)=O)C(=O)N[C@H](C(=O)N[C@@H](Cc1ccc(O)cc1)C(N)=O)[C@@H](C)O)C(C)C)[C@@H](C)O` ({C20 diacid-γGlu}-CNTATCATQRLAEFLHHSSNNFGPILPPTNVGSNTY-NH2; disulfide 1-6), the solubility in [1], in data set [2], in data set [5], in data set [10], in data set [12] and in data set [13] was 200 µM (≈ 866 µg/mL) each time. The solubility in data set [15] and in data set [19] was 200 µM (≈ 866 µg/mL) throughout. Besides, the EC50 in data set [3] was found to be 117 pM; in [8], 125 pM. The IC50 in [4] came out at 930 pM; in data set [6] it was 1350 pM; in data set [7] it was 469 pM; in data set [17] it was 182 pM. Also, the Ratio IC50 is 5 in the data set filed under Rattus norvegicus [9] and 0.3 in the data set filed under Homo sapiens [11]. Also, the Activity came out at 36% in the data set with Rattus norvegicus [14], 0% on Insulin (Homo sapiens) [18] and 39% with Rattus norvegicus [21]. For the same compound, the TIME on Insulin (Homo sapiens) [16] came out at 9 h. Moreover, the Ratio EC50 in the data set listed under Homo sapiens [20] turned out to be 1.

Regarding `CC[C@H](C)[C@H](NC(=O)[C@@H]1CCCN1C(=O)CNC(=O)[C@H](Cc1ccccc1)NC(=O)[C@H](CC(N)=O)NC(=O)[C@H](CC(N)=O)NC(=O)[C@H](CO)NC(=O)[C@H](CO)NC(=O)[C@H](Cc1cnc[nH]1)NC(=O)[C@H](Cc1cnc[nH]1)NC(=O)[C@H](CC(C)C)NC(=O)[C@H](Cc1ccccc1)NC(=O)[C@H](CCC(=O)O)NC(=O)[C@H](C)NC(=O)[C@H](CC(C)C)NC(=O)[C@H](CCCNC(=N)N)NC(=O)[C@H](CCC(N)=O)NC(=O)[C@@H](NC(=O)[C@H](C)NC(=O)[C@@H]1CSSC[C@H](NC(=O)[C@H](Cc2cnc[nH]2)NC(=O)[C@H](Cc2cnc[nH]2)NC(=O)CC[C@H](NC(=O)CCCCCCCCCCCCCCCCCCC(=O)O)C(=O)O)C(=O)N[C@@H](CC(N)=O)C(=O)N[C@@H]([C@@H](C)O)C(=O)N[C@@H](C)C(=O)N[C@@H]([C@@H](C)O)C(=O)N1)[C@@H](C)O)C(=O)N[C@@H](CC(C)C)C(=O)N1CCC[C@H]1C(=O)N1CCC[C@H]1C(=O)N[C@H](C(=O)N[C@@H](CC(N)=O)C(=O)N[C@H](C(=O)NCC(=O)N[C@@H](CO)C(=O)N[C@@H](CC(N)=O)C(=O)N[C@H](C(=O)N[C@@H](Cc1ccc(O)cc1)C(N)=O)[C@@H](C)O)C(C)C)[C@@H](C)O` ({C20 diacid-γGlu}-HHCNTATCATQRLAEFLHHSSNNFGPILPPTNVGSNTY-NH2; disulfide 3-8), the solubility in data set [1], in [2], in [12], in data set [13] and in data set [19] was 200 µM (≈ 920 µg/mL) in each case. The EC50 in [3] stood at 165 pM; in data set [8], 102 pM; in data set [22], 221 pM; in data set [24] it was 147 pM. In addition, the IC50 in data set [4] is 221 pM; in data set [6], 359 pM; in [7], 111 pM; in data set [17], 48 pM. In addition, the Ratio IC50 in the data set listed under Rattus norvegicus [9] came out at 5; in the data set filed under Homo sapiens [11], 0.3. For the same compound, the Activity in the data set with Rattus norvegicus [14] amounted to 22%; at Insulin (Homo sapiens) [18], 9%; in the data set on Rattus norvegicus [21], 40%. Moreover, the TIME on Insulin (Homo sapiens) [16] worked out at 30 h. For the same compound, the Ratio EC50 in the data set listed under Rattus norvegicus [23] and in the data set listed under Homo sapiens [20] was 2 in each case.

Take `CC[C@H](C)[C@H](NC(=O)[C@@H]1CCCN1C(=O)CNC(=O)[C@H](Cc1ccccc1)NC(=O)[C@H](CC(N)=O)NC(=O)[C@H](CC(N)=O)NC(=O)[C@H](CO)NC(=O)[C@H](CO)NC(=O)[C@H](CCCNC(=N)N)NC(=O)[C@H](Cc1cnc[nH]1)NC(=O)[C@H](CC(C)C)NC(=O)[C@H](Cc1ccccc1)NC(=O)[C@H](CCC(=O)O)NC(=O)[C@H](C)NC(=O)[C@H](CC(C)C)NC(=O)[C@H](CCCNC(=N)N)NC(=O)[C@H](CCC(N)=O)NC(=O)[C@@H](NC(=O)[C@H](C)NC(=O)[C@@H]1CSSC[C@H](NC(=O)[C@H](CCCCN)NC(=O)[C@@H](CCCNC(=N)N)NC(=O)[C@@H](CCCNC(=N)N)NC(=O)COCCOCCNC(=O)COCCOCCNC(=O)CC[C@H](NC(=O)CCCCCCCCCCCCCCCCCCC(=O)O)C(=O)O)C(=O)N[C@@H](CC(N)=O)C(=O)N[C@@H]([C@@H](C)O)C(=O)N[C@@H](C)C(=O)N[C@@H]([C@@H](C)O)C(=O)N1)[C@@H](C)O)C(=O)N[C@@H](CC(C)C)C(=O)N1CCC[C@H]1C(=O)N1CCC[C@H]1C(=O)N[C@H](C(=O)N[C@@H](CC(N)=O)C(=O)N[C@H](C(=O)NCC(=O)N[C@@H](CO)C(=O)N[C@@H](CC(N)=O)C(=O)N[C@H](C(=O)N[C@@H](Cc1ccc(O)cc1)C(N)=O)[C@@H](C)O)C(C)C)[C@@H](C)O` ({C20 diacid-γGlu-AEEA-AEEA}-[dR][dR]KCNTATCATQRLAEFLHRSSNNFGPILPPTNVGSNTY-NH2; disulfide 4-9): the solubility in data set [1], in data set [2], in data set [5], in data set [12], in data set [13] and in [19] was 200 µM (≈ 1020 µg/mL) throughout. For the same compound, the EC50 in data set [3] came out at 608 pM; in data set [8], 78 pM; in data set [22], 1890 pM; in data set [24], 132 pM. Further, the IC50 was found to be 156 pM in data set [4], 52 pM in [6], 85 pM in data set [7] and 30 pM in data set [17]. In addition, the Ratio IC50 in the data set filed under Rattus norvegicus [9] came to 5; in the data set filed under Homo sapiens [11] it was 2. In addition, the Activity with Rattus norvegicus [14] came to 0%; on Insulin (Homo sapiens) [18], 87%; in the data set with Rattus norvegicus [21], 24%. Also, the TIME on Insulin (Homo sapiens) [16] came to 45 h. Moreover, the Ratio EC50 in the data set listed under Rattus norvegicus [23] stood at 14; in the data set filed under Homo sapiens [20], 8.

Values taken from ChEMBL document CHEMBL4842340, “Development of Cagrilintide, a Long-Acting Amylin Analogue” (J Med Chem, 2021).
